Key:
[1] = compound: NC(=O)CCCCC1CCSS1 [lipoamide]; assay: thermal stability z-score vs DMSO; higher = more thermally stabilized by treatment; conditions: HeLa, lipoamide concentration 100 µM
Protocol: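 Cellular thermal proteome profiling in HeLa cells. Cells were treated with 100 µM lipoamide for 1 h, with or without 1 mM arsenate for a further 1 h, then heated to ten temperatures (37-66.3 °C), and soluble protein was quantified by TMT mass spectrometry relative to 0.1% DMSO controls. The thermal stability score (sum of log2 fold changes minus the abundance score) was transformed to a z-score; mean of n = 3 experiments.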

[2] = compound: O=[As]([O-])(O)O.[K+] [potassium arsenate]; assay: as above; conditions: HeLa; arsenate concentration 1 mM
Protocol: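 Cellular thermal proteome profiling in HeLa cells treated with 1 mM arsenate for 1 h (DMSO pretreatment), heated to ten temperatures (37-66.3 °C). Soluble protein was quantified by TMT mass spectrometry relative to DMSO controls; the thermal stability score was transformed to a z-score; mean of n = 3 experiments.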

[3] = arsenate co-treatment: 1 mM arsenate 1 h
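Also: each temperature applied for 3 min, abundance score taken as mean log2 fold change at the two lowest temperatures, z-score obtained by mean subtraction and division by SD.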

UniProt Q86SE9, sequence (Q86SE9 whole entry): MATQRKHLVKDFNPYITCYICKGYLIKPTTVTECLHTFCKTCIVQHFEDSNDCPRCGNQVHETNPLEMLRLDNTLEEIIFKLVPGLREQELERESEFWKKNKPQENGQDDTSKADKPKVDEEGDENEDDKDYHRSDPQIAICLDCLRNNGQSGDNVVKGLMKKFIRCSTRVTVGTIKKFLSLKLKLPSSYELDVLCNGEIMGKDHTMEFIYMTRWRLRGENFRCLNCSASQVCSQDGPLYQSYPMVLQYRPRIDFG
UniProt P10809, sequence (P10809 whole entry): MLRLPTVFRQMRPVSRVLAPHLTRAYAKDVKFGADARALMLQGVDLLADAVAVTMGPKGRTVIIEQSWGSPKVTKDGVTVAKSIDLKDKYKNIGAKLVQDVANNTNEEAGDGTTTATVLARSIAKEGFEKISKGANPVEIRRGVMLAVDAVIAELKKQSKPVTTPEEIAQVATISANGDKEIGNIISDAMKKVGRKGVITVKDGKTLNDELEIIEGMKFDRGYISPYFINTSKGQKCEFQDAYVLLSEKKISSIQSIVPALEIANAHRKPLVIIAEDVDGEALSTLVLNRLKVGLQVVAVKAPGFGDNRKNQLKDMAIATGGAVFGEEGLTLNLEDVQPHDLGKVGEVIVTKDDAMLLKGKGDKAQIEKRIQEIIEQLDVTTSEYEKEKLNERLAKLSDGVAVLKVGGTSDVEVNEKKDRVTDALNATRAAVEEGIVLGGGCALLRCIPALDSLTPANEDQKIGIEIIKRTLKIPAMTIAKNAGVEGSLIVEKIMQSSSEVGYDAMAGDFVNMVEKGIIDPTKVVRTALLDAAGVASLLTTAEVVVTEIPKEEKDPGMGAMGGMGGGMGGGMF
UniProt Q16537, sequence (Q16537 whole entry): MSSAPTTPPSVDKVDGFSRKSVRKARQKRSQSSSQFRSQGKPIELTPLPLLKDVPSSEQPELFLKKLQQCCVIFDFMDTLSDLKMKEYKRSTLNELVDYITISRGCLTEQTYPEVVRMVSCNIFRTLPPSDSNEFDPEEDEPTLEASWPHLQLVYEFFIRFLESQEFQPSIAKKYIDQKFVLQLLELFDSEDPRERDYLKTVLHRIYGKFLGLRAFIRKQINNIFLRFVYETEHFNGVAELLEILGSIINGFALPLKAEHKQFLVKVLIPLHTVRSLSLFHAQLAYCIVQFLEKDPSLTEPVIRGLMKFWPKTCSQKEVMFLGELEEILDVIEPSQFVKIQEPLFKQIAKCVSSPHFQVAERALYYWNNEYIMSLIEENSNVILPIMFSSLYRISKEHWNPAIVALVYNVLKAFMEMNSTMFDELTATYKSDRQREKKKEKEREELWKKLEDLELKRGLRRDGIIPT
UniProt Q9BPX3, sequence (Q9BPX3 whole entry, looked up): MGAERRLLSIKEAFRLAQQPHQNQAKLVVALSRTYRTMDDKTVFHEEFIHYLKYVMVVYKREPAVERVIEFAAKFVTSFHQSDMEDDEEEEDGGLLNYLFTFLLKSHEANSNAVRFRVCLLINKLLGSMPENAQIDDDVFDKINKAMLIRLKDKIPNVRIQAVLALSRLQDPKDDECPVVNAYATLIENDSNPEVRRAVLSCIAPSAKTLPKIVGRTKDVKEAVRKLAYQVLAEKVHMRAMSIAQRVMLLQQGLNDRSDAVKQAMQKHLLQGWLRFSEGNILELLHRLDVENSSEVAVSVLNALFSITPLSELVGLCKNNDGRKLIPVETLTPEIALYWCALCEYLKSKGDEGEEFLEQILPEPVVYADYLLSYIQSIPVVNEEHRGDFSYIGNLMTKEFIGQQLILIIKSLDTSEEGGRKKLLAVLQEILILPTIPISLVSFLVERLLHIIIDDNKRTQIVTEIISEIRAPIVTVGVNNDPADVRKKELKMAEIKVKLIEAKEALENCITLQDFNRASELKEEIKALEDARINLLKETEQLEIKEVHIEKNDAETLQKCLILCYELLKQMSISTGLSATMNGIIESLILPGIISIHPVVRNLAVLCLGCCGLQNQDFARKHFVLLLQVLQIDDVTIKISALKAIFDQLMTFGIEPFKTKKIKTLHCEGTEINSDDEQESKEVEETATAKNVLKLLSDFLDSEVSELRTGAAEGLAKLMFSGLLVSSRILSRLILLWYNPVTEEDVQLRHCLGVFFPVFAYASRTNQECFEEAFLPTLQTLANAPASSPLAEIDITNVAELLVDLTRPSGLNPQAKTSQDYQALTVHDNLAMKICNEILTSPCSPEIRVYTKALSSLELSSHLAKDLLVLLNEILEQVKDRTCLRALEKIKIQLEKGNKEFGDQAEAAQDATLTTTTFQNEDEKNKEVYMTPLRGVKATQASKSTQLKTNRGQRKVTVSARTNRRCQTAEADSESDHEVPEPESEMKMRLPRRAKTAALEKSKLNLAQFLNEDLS
UniProt Q9BRK5, sequence (Q9BRK5 whole entry): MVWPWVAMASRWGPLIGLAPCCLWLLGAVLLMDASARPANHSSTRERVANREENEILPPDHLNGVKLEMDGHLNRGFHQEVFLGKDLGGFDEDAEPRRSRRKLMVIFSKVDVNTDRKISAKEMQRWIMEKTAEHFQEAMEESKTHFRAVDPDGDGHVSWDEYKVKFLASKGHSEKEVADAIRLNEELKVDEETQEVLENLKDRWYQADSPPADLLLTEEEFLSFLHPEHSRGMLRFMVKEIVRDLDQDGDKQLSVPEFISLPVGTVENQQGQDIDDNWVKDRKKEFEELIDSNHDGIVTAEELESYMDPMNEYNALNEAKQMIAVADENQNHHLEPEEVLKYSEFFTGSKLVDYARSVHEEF
UniProt P46087, sequence (P46087 whole entry): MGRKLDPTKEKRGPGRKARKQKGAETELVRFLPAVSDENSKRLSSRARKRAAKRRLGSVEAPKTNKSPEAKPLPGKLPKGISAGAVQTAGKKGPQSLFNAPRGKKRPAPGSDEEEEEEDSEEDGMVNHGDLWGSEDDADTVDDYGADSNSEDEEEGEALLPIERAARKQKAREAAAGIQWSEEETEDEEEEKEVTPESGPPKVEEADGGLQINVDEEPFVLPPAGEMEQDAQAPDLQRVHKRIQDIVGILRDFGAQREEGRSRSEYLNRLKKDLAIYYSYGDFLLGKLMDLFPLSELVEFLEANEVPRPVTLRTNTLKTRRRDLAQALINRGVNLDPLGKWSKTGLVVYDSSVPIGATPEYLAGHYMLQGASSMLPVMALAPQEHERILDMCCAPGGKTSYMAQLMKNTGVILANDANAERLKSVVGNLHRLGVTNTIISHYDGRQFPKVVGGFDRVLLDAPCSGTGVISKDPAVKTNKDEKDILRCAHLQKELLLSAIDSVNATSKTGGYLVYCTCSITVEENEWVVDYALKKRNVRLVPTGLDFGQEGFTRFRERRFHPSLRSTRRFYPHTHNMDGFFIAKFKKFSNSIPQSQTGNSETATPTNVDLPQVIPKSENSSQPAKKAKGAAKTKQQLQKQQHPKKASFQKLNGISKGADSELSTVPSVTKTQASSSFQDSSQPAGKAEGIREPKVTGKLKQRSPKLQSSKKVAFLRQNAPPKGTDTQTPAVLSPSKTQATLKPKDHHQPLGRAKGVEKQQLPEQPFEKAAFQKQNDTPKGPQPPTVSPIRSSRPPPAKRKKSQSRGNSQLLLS
UniProt O94887, sequence (O94887 whole entry): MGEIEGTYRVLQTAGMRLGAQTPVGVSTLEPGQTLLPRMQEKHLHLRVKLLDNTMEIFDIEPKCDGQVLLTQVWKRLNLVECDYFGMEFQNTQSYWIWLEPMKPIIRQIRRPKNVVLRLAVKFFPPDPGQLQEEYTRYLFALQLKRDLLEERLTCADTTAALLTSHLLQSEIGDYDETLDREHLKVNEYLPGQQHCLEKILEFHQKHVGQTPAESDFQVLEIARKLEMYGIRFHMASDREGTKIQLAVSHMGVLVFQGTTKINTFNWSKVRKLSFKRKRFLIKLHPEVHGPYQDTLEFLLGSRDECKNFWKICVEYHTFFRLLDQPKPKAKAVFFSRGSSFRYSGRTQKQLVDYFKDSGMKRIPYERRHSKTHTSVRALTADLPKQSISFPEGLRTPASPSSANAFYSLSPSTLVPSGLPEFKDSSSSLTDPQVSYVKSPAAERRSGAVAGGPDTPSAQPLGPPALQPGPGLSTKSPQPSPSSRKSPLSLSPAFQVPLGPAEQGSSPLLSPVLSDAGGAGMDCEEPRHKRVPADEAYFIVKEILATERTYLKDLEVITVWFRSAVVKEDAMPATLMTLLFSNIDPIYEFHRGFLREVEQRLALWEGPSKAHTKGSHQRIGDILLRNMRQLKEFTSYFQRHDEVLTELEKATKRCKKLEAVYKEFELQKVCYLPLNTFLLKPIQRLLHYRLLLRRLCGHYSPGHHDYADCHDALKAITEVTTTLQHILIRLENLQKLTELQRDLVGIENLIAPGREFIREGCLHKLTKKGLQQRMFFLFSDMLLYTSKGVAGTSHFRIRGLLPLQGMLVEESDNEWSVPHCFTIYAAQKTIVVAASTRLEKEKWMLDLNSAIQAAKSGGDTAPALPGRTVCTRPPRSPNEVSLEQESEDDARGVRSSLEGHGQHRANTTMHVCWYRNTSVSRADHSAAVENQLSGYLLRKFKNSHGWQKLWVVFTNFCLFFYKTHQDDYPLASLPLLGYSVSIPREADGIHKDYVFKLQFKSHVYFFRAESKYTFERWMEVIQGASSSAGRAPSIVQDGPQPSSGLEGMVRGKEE
UniProt Q8IVB5, sequence (Q8IVB5 whole entry): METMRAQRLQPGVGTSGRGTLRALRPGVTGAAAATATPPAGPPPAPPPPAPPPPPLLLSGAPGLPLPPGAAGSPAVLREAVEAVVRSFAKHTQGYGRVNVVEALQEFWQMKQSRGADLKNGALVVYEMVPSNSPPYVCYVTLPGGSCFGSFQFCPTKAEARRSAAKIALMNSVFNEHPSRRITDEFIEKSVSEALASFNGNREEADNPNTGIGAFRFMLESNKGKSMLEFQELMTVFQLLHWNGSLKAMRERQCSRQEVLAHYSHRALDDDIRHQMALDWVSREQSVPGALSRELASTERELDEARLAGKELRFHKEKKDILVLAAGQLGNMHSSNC

| Target | thermal stability z-score [1, 3] | thermal stability z-score ([1]; arsenate co-treatment: none) | thermal stability z-score [2] |
| --- | --- | --- | --- |
| MRPS11 (UniProt P82912) | 0.302 | -0.354 | 0.34 |
| IBA57 (UniProt Q5T440) | -0.0611 | 0.155 | -0.431 |
| PARD6B (UniProt Q9BYG5) | 0.233 | -0.00454 | -0.0258 |
| SRR (UniProt Q9GZT4) | -0.139 | -0.118 | -0.393 |
| MTMR2 (UniProt Q13614) | 0.88 | -0.108 | -0.555 |
| PRRC2B (UniProt Q5JSZ5) | -0.32 | -0.119 | -0.412 |
| HELZ2 (UniProt Q9BYK8) | -0.0529 | -0.115 | -0.0872 |
| LRRC16A (UniProt Q5VZK9) | 0.276 | 0.0854 | 1.26 |
| BCAT2 (UniProt O15382) | 0.516 | 0.0921 | 1.1 |
| TCEAL1 (UniProt Q15170) | 0.347 | 0.809 | 0.192 |
| PCGF5 (UniProt Q86SE9) | 0.0387 | 0.0817 | -0.181 |
| PTRF (UniProt Q6NZI2) | 0.213 | 0.0879 | 0.778 |
| MRPL45 (UniProt Q9BRJ2) | -0.181 | 0.0671 | 0.214 |
| ACLY (UniProt P53396) | 0.0389 | -0.136 | -0.944 |
| MRPS18A (UniProt Q9NVS2) | -0.573 | -0.402 | 0.196 |
| EIF2B5 (UniProt Q13144) | -0.392 | 0.253 | 0.878 |
| HSPD1 (UniProt P10809) | -0.0897 | 0.0259 | -0.432 |
| ANLN (UniProt Q9NQW6) | 0.066 | 0.0787 | -1.45 |
| ARNT (UniProt P27540) | 0.605 | 0.794 | 0.561 |
| FAM65A (UniProt Q6ZS17) | 0.215 | 0.0539 | -0.0314 |
| FBN1 (UniProt P35555) | -2.81 | -2.71 | 0.276 |
| SCYL2 (UniProt Q6P3W7) | -0.369 | -0.657 | -0.414 |
| NCAPG (UniProt Q9BPX3) | -0.382 | 0.295 | 0.883 |
| RAD51 (UniProt Q06609) | 0.0327 | 0.256 | -0.0411 |

| Target | thermal stability z-score [1, 3] | thermal stability z-score ([1]; arsenate co-treatment: none) | thermal stability z-score [2] |
| --- | --- | --- | --- |
| CCDC124 (UniProt Q96CT7) | 0.0112 | -0.0241 | -0.605 |
| ACOX1 (UniProt Q15067) | 0.516 | 0.379 | 0.389 |
| PAPSS1 (UniProt O43252) | -0.0513 | -0.0832 | 0.0908 |
| ATP1B1 (UniProt P05026) | 0.104 | -0.207 | -0.201 |
| MYDGF (UniProt Q969H8) | -1.32 | -1.06 | -0.0349 |
| PSMA2 (UniProt P25787) | 0.38 | 0.455 | -0.132 |
| NOP2 (UniProt P46087) | 0.976 | -0.163 | -0.016 |
| ZNF346 (UniProt Q9UL40) | -0.17 | 0.0809 | 0.04 |
| ASCC1 (UniProt Q8N9N2) | -1.01 | -0.215 | -0.708 |
| DLAT (UniProt P10515) | -2.72 | -0.583 | -11.2 |
| SUMF1 (UniProt Q8NBK3) | -1 | -0.419 | -0.194 |
| NUF2 (UniProt Q9BZD4) | -0.884 | -0.901 | 2.02 |
| CCNA2 (UniProt P20248) | 1.41 | 0.18 | 1.25 |
| GEMIN8 (UniProt Q9NWZ8) | 0.0342 | -0.0734 | -0.0475 |
| WASF1 (UniProt Q92558) | -0.121 | -0.0242 | -0.375 |
| LIX1L (UniProt Q8IVB5) | -0.241 | -0.219 | -0.301 |
| SLC6A9 (UniProt P48067) | -0.26 | -0.8 | -0.636 |
| MITF (UniProt O75030) | -0.413 | -0.377 | 0.297 |
| GBA (UniProt P04062) | -0.361 | -0.352 | 0.33 |
| FARP2 (UniProt O94887) | -0.32 | -0.266 | -0.235 |
| SSU72 (UniProt Q9NP77) | -0.256 | -0.465 | -0.473 |
| MRPL11 (UniProt Q9Y3B7) | -0.211 | 0.169 | 0.0228 |
| PPP2R5E (UniProt Q16537) | 0.219 | 0.285 | 0.682 |
| ARF6 (UniProt P62330) | 0.394 | 0.237 | 0.683 |

| Target | thermal stability z-score [1, 3] | thermal stability z-score ([1]; arsenate co-treatment: none) | thermal stability z-score [2] |
| --- | --- | --- | --- |
| CCDC12 (UniProt Q8WUD4) | 0.646 | 0.397 | -0.605 |
| UHRF1BP1L (UniProt A0JNW5) | -0.0289 | -0.329 | -0.53 |
| MRPS23 (UniProt Q9Y3D9) | -0.268 | 0.352 | 0.342 |
| WRB (UniProt O00258) | -0.618 | 0.0706 | -0.55 |
| MTMR1 (UniProt Q13613) | -0.545 | -0.803 | -1.27 |
| RUFY2 (UniProt Q8WXA3) | -0.19 | -0.0853 | -0.0152 |
| LAMTOR5 (UniProt O43504) | -0.306 | -0.405 | 0.0111 |
| PACSIN2 (UniProt Q9UNF0) | 0.246 | 0.134 | 0.638 |
| CYBA (UniProt P13498) | 0.0672 | 0.232 | 0.653 |
| TIMELESS (UniProt Q9UNS1) | -0.244 | -0.0831 | -0.498 |
| LAMTOR1 (UniProt Q6IAA8) | 1.14 | 0.655 | 0.827 |
| IKBIP (UniProt Q70UQ0) | -3.01 | -2.3 | -0.0459 |
| PITRM1 (UniProt Q5JRX3) | 0.579 | 0.327 | 2.58 |
| TMEM41A (UniProt Q96HV5) | 0.652 | 0.936 | 0.885 |
| HNRNPH1 (UniProt P31943) | -0.365 | 0.482 | -0.9 |
| SOGA1 (UniProt O94964) | 0.0497 | -0.0282 | -0.097 |
| COG8 (UniProt Q96MW5) | 0.022 | 0.151 | 0.149 |
| SDF4 (UniProt Q9BRK5) | -1.8 | -1.61 | 0.389 |
| CWC15 (UniProt Q9P013) | 1.65 | 0.526 | -0.193 |
| NOC2L (UniProt Q9Y3T9) | 0.154 | 0.208 | 0.0133 |
| SH3GL1 (UniProt Q99961) | -0.0464 | 0.144 | 0.538 |
| BMS1 (UniProt Q14692) | 0.575 | 0.482 | 0.723 |
| SUGP1 (UniProt Q8IWZ8) | 0.164 | -0.049 | 0.928 |
